Entries after “also recorded” stand apart in the source; their conditions may differ.
Target: T1, HDAC6 (Homo sapiens, UniProt Q9UBN7)
T1 sequence (Q9UBN7 1-1215): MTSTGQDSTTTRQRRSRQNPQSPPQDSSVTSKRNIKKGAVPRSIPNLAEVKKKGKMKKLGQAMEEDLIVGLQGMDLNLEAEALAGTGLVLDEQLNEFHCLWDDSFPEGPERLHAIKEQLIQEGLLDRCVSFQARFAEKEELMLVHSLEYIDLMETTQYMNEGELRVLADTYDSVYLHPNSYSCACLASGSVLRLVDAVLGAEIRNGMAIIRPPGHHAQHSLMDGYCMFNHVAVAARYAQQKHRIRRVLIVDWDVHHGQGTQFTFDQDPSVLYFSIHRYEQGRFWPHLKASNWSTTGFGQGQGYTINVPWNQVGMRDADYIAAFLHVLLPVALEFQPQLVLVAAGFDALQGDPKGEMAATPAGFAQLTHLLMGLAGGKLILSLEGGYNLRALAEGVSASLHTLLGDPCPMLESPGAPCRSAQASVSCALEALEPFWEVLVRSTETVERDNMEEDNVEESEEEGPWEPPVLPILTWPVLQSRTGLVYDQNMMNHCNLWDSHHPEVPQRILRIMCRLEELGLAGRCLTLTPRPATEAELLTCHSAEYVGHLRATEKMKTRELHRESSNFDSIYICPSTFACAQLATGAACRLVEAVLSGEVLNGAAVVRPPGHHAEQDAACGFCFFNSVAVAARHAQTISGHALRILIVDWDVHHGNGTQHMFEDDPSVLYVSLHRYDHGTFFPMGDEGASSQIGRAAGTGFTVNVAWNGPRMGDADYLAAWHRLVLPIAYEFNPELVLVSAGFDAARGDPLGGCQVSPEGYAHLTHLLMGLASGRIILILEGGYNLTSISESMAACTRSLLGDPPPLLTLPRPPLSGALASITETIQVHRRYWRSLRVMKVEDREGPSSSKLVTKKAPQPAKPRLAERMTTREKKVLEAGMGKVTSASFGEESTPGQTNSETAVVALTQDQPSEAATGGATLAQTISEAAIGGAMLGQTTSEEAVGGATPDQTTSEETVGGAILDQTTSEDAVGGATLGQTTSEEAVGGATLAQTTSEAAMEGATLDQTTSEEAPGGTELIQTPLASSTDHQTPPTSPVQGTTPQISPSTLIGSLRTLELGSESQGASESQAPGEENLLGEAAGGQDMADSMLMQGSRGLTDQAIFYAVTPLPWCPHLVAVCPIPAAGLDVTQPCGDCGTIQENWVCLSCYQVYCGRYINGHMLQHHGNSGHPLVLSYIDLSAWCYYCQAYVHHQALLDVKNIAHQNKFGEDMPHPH
Experiment: Western blotting with anti-acetylated lysine / HDAC6 Abs
Assay type: cell-based
Design: MM.1S, U266, INA-6, RPMI8226, and RPMI-LR5 MM cell lines constitutively express HDAC6; endogenous in cells; host or cells: MM.1S, RPMI8226 and other MM cell lines; MM patient BMPCs/PBMCs
Protocol: MM cells were cultured with Velcade and/or Tubacin; harvested; washed; and lysed using lysis buffer: 50 mM Tris-HCl (pH 7.4), 150 mM NaCl, 1% NP-40, 5 mM EDTA, 5 mM NaF, 2 mM Na3VO4, 1 mM PMSF, 5 μg/ml leupeptine, and 5 μg/ml aprotinin. Cell lysates were subjected to SDS-PAGE, transferred to PVDF membrane (Bio-Rad Laboratories, Hercules, Calif.), and immunoblotted with Abs against specific proteins.
Cells cultured with tubacin and/or bortezomib were harvested; washed, and lysed using lysis buffer: 50 mM Tris-HCl (pH 7.4), 150 mM NaCl, 1% NP-40, 5 mM EDTA, 5 mM NaF, 1 mM Na3VO4, 1 mM PMSF, 5 μg/ml leupeptine, and 5 μg/ml aprotinin. Whole cell lysates were subjected to SDS-PAGE, transferred to nitrocellulose membrane (Bio-Rad Laboratories, Hercules, Calif.), and immunoblotted with specific Abs (31). Western blotting was done using anti-HDAC6, acetylated lysine, acetylated histone H3, acetylated histone H4, ubiquitin (Ub), phospho-SAPK (JNK), caspase-8 caspase-9, caspase-3, and PARP Abs (Cell Signaling, Beverly, Mass.); with anti-α-tubulin Ab (Santa Cruz Biotechnology, Santa Cruz, Calif.); as well as with anti-dynein Ab (Sigma, Saint Louis, Mo.). For immunoprecipitation, whole cell lysates were incubated with anti-Ub or dynein Abs overnight at 4° C., and then incubated with protein A/G PLUS-Agarose (Santa Cruz Biotechnology) for 2 h at 4° C., as in our prior study (31). Immunoprecipitates were then subjected to Western blotting for detection of HDAC6 and dynein.

## O=C(CCCCCCC(=O)Nc1ccc([C@H]2O[C@@H](CSc3nc(-c4ccccc4)c(-c4ccccc4)o3)C[C@@H](c3ccc(CO)cc3)O2)cc1)NO [tubacin]
MM cell lines (MM.1S, RPMI8226), tubacin up to 5 μM, 24 h
  acetylation of α-tubulin: significantly induces aceylation of α-tubulin in a dose-dependent fashion; also recorded: causes tubulin hyperacetylation; also recorded: specifically induces acetylation of t-tubulin in a dose-dependent fashion; also recorded: specifically induces acetylation of α-tubulin
Tubacin 5 μM, 12 h, BMPCs of an MM patient
  acetylation of tubulin in BMPCs: markedly enhanced
Tubacin 5 μM, 12 h, PBMCs of the same MM patient
  acetylation of tubulin in PBMCs: but not in PBMCs
Tubacin 5 μM, RPMI8226 cells
  time of peak acetylation of α-tubulin: 12 h
Tubacin treatment (data not shown)
  expression of HDAC6: not altered

Reference: patent US10172905B1, “Treatment of protein degradation disorders” (President and Fellows of Harvard College, priority 2005, dated 2019)
